Results published in patent publication US8323919B2, “Assay methods for identifying glycogen synthase kinase 3 modulators” (PerkinElmer BioSignal, Inc., priority 2009, dated 2012).

Molecular target: T1, GSK3β (Homo sapiens, UniProt P49841)
T1 construct: purchased Carna Biosciences
Assay: LANCE Ultra TR-FRET kinase assay: phosphorylation of non-primed ULight-labeled 4E-BP1-derived peptide by GSK3β in the presence of inhibitor
Format: biochemical
Settings: GSK3β (Carna Biosciences) 2 nM, ATP 10 μM, ULight-4E-BP1 50 nM, 60 min, DMSO 1%, inhibitor at various concentrations
Experimental: Anti-phosphorylated-4E-BP1 antibody (Thr37/46) labeled with a FRET donor is added and upon irradiation, the proximity of the FRET donor and FRET acceptor produce a signal, shown on the y-axis. The 4E-BP1-derived peptide substrate of SEQ ID No. 7 was used, modified by addition of three amino acids at both the N- and C-termini to facilitate solubilizing the peptide and labeling of the peptide with a FRET acceptor label; and
Anti-phosphorylated-4E-BP1 antibody (Thr37/46) labeled with a FRET donor is added and upon irradiation, the proximity of the FRET donor and FRET acceptor produce a signal, shown on the y-axis The 4E-BP1-derived peptide substrate of SEQ ID No. 7 was used, modified by addition of three amino acids at both the N- and C-termini to facilitate solubilizing the peptide and labeling of the peptide with a FRET acceptor label.
LANCE® Ultra assays are based on time-resolved fluorescence resonance energy transfer (TR-FRET). They use a proprietary europium chelate donor dye, W-1024 (Eu), with ULight®, a small molecular weight acceptor dye with a red fluorescent emission. In kinase assays, the binding of a Eu-labeled anti-phospho-substrate antibody to the phosphorylated ULight-labeled substrate brings donor and acceptor dye molecules into proximity. […]

T1 sequence (P49841 whole entry): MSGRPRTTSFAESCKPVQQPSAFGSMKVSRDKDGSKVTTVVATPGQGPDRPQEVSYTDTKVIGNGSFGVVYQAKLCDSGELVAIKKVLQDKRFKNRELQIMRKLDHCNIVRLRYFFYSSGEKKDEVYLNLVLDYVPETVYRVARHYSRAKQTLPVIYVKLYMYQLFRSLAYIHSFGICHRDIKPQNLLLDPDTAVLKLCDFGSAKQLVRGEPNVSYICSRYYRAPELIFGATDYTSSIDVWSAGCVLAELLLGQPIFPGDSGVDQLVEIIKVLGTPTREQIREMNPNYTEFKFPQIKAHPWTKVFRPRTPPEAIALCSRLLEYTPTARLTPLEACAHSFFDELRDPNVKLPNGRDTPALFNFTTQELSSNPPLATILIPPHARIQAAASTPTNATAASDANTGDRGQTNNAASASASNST

For `Cn1cc(C2=C(c3ccc(Cl)cc3Cl)C(=O)NC2=O)c2ccccc21` [SB216763], the “GSK3β activity on a 4E-BP1 GSK3 substrate” value was “inhibited”.

For `O=C1Cc2c([nH]c3ccc(Br)cc23)-c2ccccc2N1` [kenpaullone], the “GSK3β activity on a 4E-BP1 GSK3 substrate” value was “inhibited”.
